Patent US20080146555A1, “Uses of Kinase Inhibitors and Compositions Thereof” (GPC Biotech, Inc, priority 2004, published 2008)
pIC50: −log10 of the molar value. “And” between values parts separate entries of the source, which are not always exact repeats. Equal entries are not always repeated. Structures can show the parent of a compound that is named as a salt. Where two headings read alike, the source gives them in different places.

Legend:
CDKs = target: T1, CDKs; assay: Kinase panel, CDKs (average/range); format: biochemical
T1 construct: IC50 range over CDK1-7; other: 6 CDKs / CDK1-7; Cdk2/his-cyclin Eshort was expressed in Sf9 cells; Cdk2/cyclin A, cdk4/cyclin D1, and cdk6/cyclin D2 were expressed in Sf9 cells

[1] = system: KU812 leukemia cells (Bcr-Abl); assay: Proliferation of KU812 cells, calcein assay by flow cytometry; format: cell-based; conditions: Homo sapiens, KU812, 72 h, read-out: KU812 cells IC50 (proliferation)
Method: The proliferation of KU812 cells was assayed using the calcein viability assay described in Assay 3 but adapted for quantification by flow cytometry, briefly as follows: cells were recovered from sub-confluent plates by trypsinization and re-plated at a density of 1,000 cells/well in 24 well plates and incubated 24 hours to allow adherence. The media (RPMI-1640 supplemented with 10% FCS and Pen/Strep) was aspirated from each well and replaced with media containing the compound at a range from 0 to 0.250 μM. The plates were incubated for 3 days corresponding to approximately three cell cycles. Cellular viability was determined with the Calcein AM assay as follows. The cells were washed twice in PBS and incubated with 5 μM Calcein AM/PBS for 75 minutes before determining fluorescent units with a fluorescent plate reader. The Calcein AM assay was adapted for the flow cytometer by including an additional 1:16,000 dilution of the Calcein AM in PBS of which 200 ul was added to each sample of cells.

Blk = target: T2, Blk (Homo sapiens, UniProt P51451); assay: Blk kinase assay; format: biochemical
T2 construct: purchased Upstate 14-517
Method: • 1. 10× Reaction buffer: […], 1 mM sodium orthovanadate, 1% 2-mercaptoethanol. • 2. Enzyme Dilution Buffer (EDB): 50 mM Tris-HCl pH 7.5, 0.1 mM EGTA, 0.1 mM sodium orthovanadate, 0.1% 2-mercaptoethanol 0.03% Brij-35. • 3. Blk (human), active: Dilute to 4-40 ng/μl with EDB. Use 2.5 μl per assay point. • 4. Poly(Glu-4-Tyr) (4:1): Prepare a 1 mg/ml stock. Use 2.5 μl per assay point for a final assay concentration of 0.1 mg/ml per assay point. • 5. [γ-^32P]ATP: Stock 1 mCi/100 μl (3000 Ci/mmol, obtained from PerkinElmer, Cat. # BLU002A). Make 10 μl aliquots (100 μCi/vial). Before starting the assay, dilute an aliquot to 1 μCi/μl with 90 μl of 75 mM MgCl2 and 500 μM cold ATP in 20 mM MOPS, pH 7.2, 25 mM β-glycerol phosphate, 5 mM EGTA, 1 mM sodium orthovanadate, 1 mM dithiothreitol.
• 1. Add 2.5 μl of 10× Reaction Buffer per assay. • 2. Add 2.5 μl (0.1 mg/ml) of Poly (Glu-4-Tyr) (4:1). • 3. Add 2.5 μl (10-100 ng) of Blk (human), active. • 4. Add 7.5 μl sterile, distilled water. • 5. Add 10 μl of the diluted [γ-^32P]ATP solution. • 6. Incubate for 10 minutes at 30° C. • 7. Transfer a 20 μl aliquot onto the center of a […]. • 8. Wash the assay squares three times for 5 minutes with 0.75% phosphoric acid. • 9. Wash the assay squares once for 5 minutes with acetone. • 10. Transfer the assay squares to vial and add 1 ml scintillation cocktail. • 11. Read in scintillation counter. Compare cpm of enzyme samples to cpm of control samples that contain background control.

c-Src = target: T3, c-Src (Homo sapiens, UniProt P12931); assay: c-Src kinase assay; format: biochemical
T3 construct: purchased Upstate 14-326
Method: • 1. Src Kinase Reaction Buffer (SrcRB), Catalog #20-121: 100 mM Tris-HCl, pH 7.2, 125 mM MgCl2, 25 mM MnCl2, 2 mM EGTA, 0.25 mM sodium ortovanadate, 2 mM dithiothreitol. • 2. [γ-^32P]ATP: Stock 1 mCi/100 μl (3000 Ci/mmol, obtained from DuPont-NEN). Make 10 μl aliquots (100 μCi/vial). Before starting the assay dilute an aliquot to 1 μCi/μl with 90 μl of 500 μM unlabeled ATP containing 75 mM MnCl2 20 mM MOPS, pH 7.2, 25 mM β-glycerophosphate, 5 mM EGTA, 1 mM Na3VO4, 1 mM dithiothreitol. • 3. Src Kinase Substrate Peptide (Catalog #12-140): Use a 0.6-1.5 mM stock. Rehydrate 1 mg peptide with […] distilled water or SrcRB for a 1.5 mM stock or with 998 μl for a 0.6 mM stock. • 4. Src, active: Use 20-80 Units per assay point. Dilute as required with SrcRB.
• 1. Add 10 μl of SrcRB into a microfage tube. • 2. Add 10 μl Src Kinase substrate peptide (93-375 μM/assay). • 3. Add 4-16 μl of Src, active (20-80 Units/assay). • 4. Add 10 μl of the diluted [γ-^32P]ATP. • 5. Incubate for 10 minutes at 30° C. • 6. Add 20 μl of 40% TCA and incubate for 5 minutes at room temperature. • 7. Transfer 25 μl to the center of a 2 cm×2 cm P81 paper square. • 8. Wash the assay squares five times for 5 minutes each with 0.75% phosphoric acid. • 9. Wash the assay squares once with acetone for 5 minutes. • 10. Transfer the assay squares to a scintillation vial and add 5 ml scintillation cocktail. • 11. Read in scintillation counter. Compare cpm of enzyme samples to cpm of control samples that contain no enzyme (background control).

panel of Ser/Thr kinases = assay: Kinase panel, Ser/Thr kinases (average); format: biochemical; conditions: average over panel; for pIC50: read-out: average IC50 among non-CDK Ser/Thr kinases
cells = assay: Apoptosis detection (TUNEL staining, PARP cleavage); format: cell-based; conditions: 72 hours at 5× of the IC50 concentration
Method: In addition, PARP cleavage was also observed. Similarly, cells incubated with B16 are 90% TUNEL positive. Such assays can be used for apoptosis detection in any cells in contact with the subject compounds.

[2] = 6 CDKs / CDK1-7, read-out: average IC50 for CDKs
[3] = read-out: BLK Inhibition (IC50)
[4] = read-out: SRC Inhibition (IC50)

T3 sequence (P12931 whole entry): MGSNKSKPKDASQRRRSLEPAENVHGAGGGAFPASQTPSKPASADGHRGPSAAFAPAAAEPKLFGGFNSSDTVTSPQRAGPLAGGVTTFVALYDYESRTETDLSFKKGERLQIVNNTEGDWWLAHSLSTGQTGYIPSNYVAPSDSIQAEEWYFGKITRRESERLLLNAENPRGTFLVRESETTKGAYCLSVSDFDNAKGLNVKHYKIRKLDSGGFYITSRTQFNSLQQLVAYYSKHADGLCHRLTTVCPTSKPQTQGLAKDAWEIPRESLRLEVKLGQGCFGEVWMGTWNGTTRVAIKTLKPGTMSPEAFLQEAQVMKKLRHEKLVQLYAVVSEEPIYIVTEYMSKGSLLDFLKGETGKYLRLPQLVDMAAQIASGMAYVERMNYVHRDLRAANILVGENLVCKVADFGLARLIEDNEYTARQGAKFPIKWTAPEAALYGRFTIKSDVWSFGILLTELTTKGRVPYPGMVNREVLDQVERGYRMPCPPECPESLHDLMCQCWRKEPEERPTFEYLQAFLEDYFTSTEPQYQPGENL
T2 sequence (P51451 whole entry): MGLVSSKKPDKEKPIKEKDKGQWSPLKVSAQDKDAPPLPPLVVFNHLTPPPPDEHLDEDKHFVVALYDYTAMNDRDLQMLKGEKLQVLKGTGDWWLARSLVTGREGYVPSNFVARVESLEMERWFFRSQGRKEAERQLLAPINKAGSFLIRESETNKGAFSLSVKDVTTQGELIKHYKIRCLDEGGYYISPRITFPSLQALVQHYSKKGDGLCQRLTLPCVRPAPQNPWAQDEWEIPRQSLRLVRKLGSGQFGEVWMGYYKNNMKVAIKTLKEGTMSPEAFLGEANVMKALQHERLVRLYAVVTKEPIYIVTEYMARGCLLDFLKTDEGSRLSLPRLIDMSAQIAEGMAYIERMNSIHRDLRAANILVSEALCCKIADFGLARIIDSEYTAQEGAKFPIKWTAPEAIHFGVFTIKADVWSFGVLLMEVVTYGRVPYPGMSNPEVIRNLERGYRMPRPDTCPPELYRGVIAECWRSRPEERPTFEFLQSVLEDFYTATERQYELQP

`CC(C)N1CCN(C(=O)COc2ccc(-c3n[nH]c4c3C(=O)c3c(NC(=O)NN5CCOCC5)cccc3-4)cc2)CC1` [Compound A37] was tested, and the pIC50 (CDKs; [2]) was ~7.38 and 7.38, the pIC50 (CDKs; read-out: IC50 range over CDK1-7) was 6.81 to 8.52 and the pIC50 [1] was 7.07. For the same molecule, the pIC50 (Blk; [3]) was greater than 7.00, the pIC50 (c-Src; [4]) was greater than 7.30 and the “average IC50 among non-CDK Ser/Thr kinases” value (panel of Ser/Thr kinases) was “about 29 nM”. The pIC50 (panel of Ser/Thr kinases) was 7.36, the PARP cleavage (cells) was “observed” and the TUNEL positive cells (cells) was “about 60%”.

Work on `COCCN1CCN(Cc2ccc(-c3n[nH]c4c3C(=O)c3c(NC(=O)NN5CCOCC5)cccc3-4)cc2)CC1` [Compound B16, N-[3-(4-{[4-(2-methoxyethyl)piperazinyl]methyl}phenyl)-4-oxoindeno[2,3-d]pyrazol-5-yl](morpholin-4-ylamino)carboxamide dihydrochloride] yielded a pIC50 (CDKs; [2]) of roughly 7.77, a pIC50 ([1]; 3 days, calcein AM, flow cytometry) of 7.27 and a pIC50 (Blk; kinase panel, read-out: Blk IC50) greater than 7.00. For the same molecule, the pIC50 (Blk; [3]) was greater than 7.00, the pIC50 (c-Src; kinase panel, 10 μM ATP, read-out: c-Src IC50) was greater than 7.00 and the pIC50 (c-Src; [4]) was greater than 7.30. The pIC50 (panel of Ser/Thr kinases) was roughly 7.30 and the TUNEL positive cells (cells) was 90%.
